Literature values, collected in patent US20090263333A1, “Pharmaceutical compounds and compositions” (Cipla Limited, priority 2004, published 2009).

Details: dose comparison with racemic salbutamol

## CC(C)(C)NC[C@H](O)c1ccc(O)c(CO)c1 [Levosalbutamol, levosalbutamol]
  efficacy relative to racemic salbutamol: comparable efficacy at nearly one-fourth the dose of racemic salbutamol
